The values that follow come from ChEMBL document CHEMBL2321730, “Development of κ opioid receptor antagonists” (J Med Chem, 2013).

Broadly, the IC50 is the concentration that inhibits the measured activity by half. A higher IC50 goes with a need for much substance. Usually Ki stands for a dissociation constant, usually derived from enzyme kinetics or from competition with a known ligand. A high value points to lower affinity. What is called ED50 is the midpoint of the dose-response relation. High values mean a need for a large dose, low ones an effect at a small dose.

The structures appear in SMILES notation. Where a SMILES comes first, the peptide text is derived from it. [ ]: non-standard residue; d: D form.

Assay [1] deals with Delta-type opioid receptor (Homo sapiens, UniProt P41143). Description: Antagonist activity at DOR (unknown origin) by [35S]GTPgammaS assay. The assay is classed as functional. A general note: GTPγS is a poorly hydrolysed GTP analogue; its binding reports G protein activation.
Delta-type opioid receptor, sequence (P41143 whole entry): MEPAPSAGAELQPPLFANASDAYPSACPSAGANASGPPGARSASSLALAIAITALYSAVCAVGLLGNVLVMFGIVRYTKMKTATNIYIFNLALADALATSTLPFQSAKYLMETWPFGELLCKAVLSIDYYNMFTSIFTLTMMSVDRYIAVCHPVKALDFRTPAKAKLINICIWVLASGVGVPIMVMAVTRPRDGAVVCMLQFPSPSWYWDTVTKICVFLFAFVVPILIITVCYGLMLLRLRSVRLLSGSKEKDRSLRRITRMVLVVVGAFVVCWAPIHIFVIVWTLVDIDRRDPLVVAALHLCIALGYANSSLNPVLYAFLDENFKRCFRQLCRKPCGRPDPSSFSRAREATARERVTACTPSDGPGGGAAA
The target in assay [2] is T1, Kappa-type opioid receptor (Homo sapiens, UniProt P41145). Description: Antagonist activity at KOR (unknown origin) by [35S]GTPgammaS binding assay.
T1 sequence (P41145 whole entry): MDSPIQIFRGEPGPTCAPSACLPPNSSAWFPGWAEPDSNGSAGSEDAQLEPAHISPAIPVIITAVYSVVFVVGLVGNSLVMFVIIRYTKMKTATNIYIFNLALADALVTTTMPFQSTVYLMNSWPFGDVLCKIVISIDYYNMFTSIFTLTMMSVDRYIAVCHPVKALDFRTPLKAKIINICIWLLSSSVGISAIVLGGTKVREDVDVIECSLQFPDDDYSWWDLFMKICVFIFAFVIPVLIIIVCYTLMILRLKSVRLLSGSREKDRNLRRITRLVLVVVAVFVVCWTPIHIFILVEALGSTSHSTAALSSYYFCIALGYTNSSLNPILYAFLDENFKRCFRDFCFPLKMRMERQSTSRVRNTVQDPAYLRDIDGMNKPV
The target of the next assay is Mu-type opioid receptor (Homo sapiens, UniProt P35372). Description: Antagonist activity at MOR (unknown origin) by [35S]GTPgammaS binding assay.
Mu-type opioid receptor, sequence (P35372 whole entry): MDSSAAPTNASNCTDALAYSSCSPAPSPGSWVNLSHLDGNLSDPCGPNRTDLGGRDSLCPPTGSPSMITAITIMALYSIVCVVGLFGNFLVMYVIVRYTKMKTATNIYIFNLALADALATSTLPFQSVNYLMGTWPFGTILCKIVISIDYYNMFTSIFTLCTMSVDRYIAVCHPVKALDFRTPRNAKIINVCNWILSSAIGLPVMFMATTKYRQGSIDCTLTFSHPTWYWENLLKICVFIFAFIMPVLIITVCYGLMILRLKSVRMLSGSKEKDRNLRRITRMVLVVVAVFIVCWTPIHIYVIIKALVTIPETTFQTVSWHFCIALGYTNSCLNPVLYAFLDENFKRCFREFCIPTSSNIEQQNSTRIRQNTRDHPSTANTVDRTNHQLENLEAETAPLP
The target of assay [3] is T1, Kappa-type opioid receptor. Description: Binding affinity to KOR (unknown origin).
For assay [4], the target named is T1, Kappa-type opioid receptor. Description: Inhibition of dynorphin A (1-13) NH2 binding to KOR (unknown origin) by adenylyl cyclase assay. The class given is functional.
The target of assay [5] is Kappa-type opioid receptor (Rattus norvegicus, UniProt P34975). Description: Displacement of [3H]diprenorphine from rat cloned KOR expressed in CHO cells after 90 mins by scintillation counting analysis. Background: In a radioligand displacement assay an active substance lowers the binding of a labelled ligand.
Kappa-type opioid receptor (Rattus norvegicus, UniProt P34975), sequence (P34975 whole entry): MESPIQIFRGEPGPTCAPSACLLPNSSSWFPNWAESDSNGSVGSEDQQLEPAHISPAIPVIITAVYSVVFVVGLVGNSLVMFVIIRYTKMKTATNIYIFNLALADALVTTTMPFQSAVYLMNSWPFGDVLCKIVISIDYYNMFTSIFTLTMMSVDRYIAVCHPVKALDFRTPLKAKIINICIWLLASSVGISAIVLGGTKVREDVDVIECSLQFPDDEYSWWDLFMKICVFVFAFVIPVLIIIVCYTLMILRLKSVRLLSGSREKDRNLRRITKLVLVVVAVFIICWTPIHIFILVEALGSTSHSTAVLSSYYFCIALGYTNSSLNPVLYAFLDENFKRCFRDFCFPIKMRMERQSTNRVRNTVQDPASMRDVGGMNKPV
Assay [6] relates to Mus musculus. Description: Antinociceptive activity in icv dosed C57B1/6J mouse assessed as tail withdrawal latency measured in every 10 mins for 1 hr by warm water tail withdrawal assay. The assay is classed as functional, organism-based.
Assay [7] is described as follows: Displacement of DPDPE from DOR in guinea pig brain membrane fraction after 30 mins by scintillation counting analysis. The class given is cell membranes, Cavia porcellus.
The subject of assay [8] is Mus musculus. Description: Antinociceptive activity in C57B1/6J mouse at 10 nmol, icv administered 80 mins prior to U50488 addition by warm water tail withdrawal assay. The assay is classed as functional.
The test system of assay [9] is Rattus norvegicus. Description: In vivo receptor occupancy at MOR in po dosed Harlan Sprague-Dawley rat brain after 5.5 hrs by LC/MS/MS analysis. The assay is classed as functional.
Assay [10] concerns Rattus norvegicus. Description: In vivo receptor occupancy at DOR in po dosed Harlan Sprague-Dawley rat brain after 5.5 hrs by LC/MS/MS analysis. The class given is functional.

As for `O=C(Nc1cccc(NC(=O)c2cccc(N3CCCCC3)c2)c1)c1cccc(OC2CCN(CC3CC3)CC2)c1`, the IC50 was more than 30000 nM in assay [1], 77 nM in assay [2] and more than 30000 nM at Mu-type opioid receptor. The molecule also displayed a Ki in [3] of 0.5 nM.

In the case of `CC[C@H](C)[C@@H]1NC(=O)[C@H](CCCNC(=N)N)NC(=O)[C@@H](NC(=O)[C@H](Cc2ccccc2)NC(=O)CNC(=O)CNC(=O)[C@H](Cc2ccc(O)cc2)NCc2ccccc2)CC(=O)NC[C@@H](C(=O)N[C@@H](CCCNC(=N)N)C(=O)N2CCC[C@H]2C(=O)N[C@@H](CCCCN)C(N)=O)NC1=O`, in [4], the Kb came to 84 nM.

As to `O=C1N[C@@H](Cc2ccccc2)C(=O)N2CCC[C@@H]2C(=O)N[C@@H](Cc2ccccc2)C(=O)N[C@H]1Cc1c[nH]c2ccccc12` (cyclo(FWF[dP])), affinity in [5] was put at a Ki of 35.4 nM. For the same molecule, in the assay with Mus musculus [6], the EC50 is listed as 3.71 nmol. In assay [7], this molecule gave an IC50 of 2600 nM.

For `O=C1N[C@H](Cc2c[nH]c3ccccc23)C(=O)N[C@@H](Cc2ccccc2)C(=O)N2CCC[C@@H]2C(=O)N[C@H]1Cc1ccccc1` (cyclo(F[dP]F[dW])), in assay [5], the Ki is 30.6 nM. Moreover, the Activity with Mus musculus [8] is 10%.

For `Cc1cc(C)cc([C@@H]2CCCN2Cc2ccc(Oc3ccc(C(N)=O)cc3F)cc2)c1` [ATICAPRANT], the ED50 in the assay with Rattus norvegicus [9] and in the assay on Rattus norvegicus [10] was more than 30 mg/kg each time.
